Test in all cases: Gel-based competitive ABPP in vitro, mouse brain membrane proteome
Common to all, as to format: biochemical

For assay [1], the target named is T1, ABHD6 (Mus musculus, UniProt Q8R2Y0).
T1 construct: from tissue; host or cells: mouse brain, membrane fraction
T1 sequence (Q8R2Y0 1-336): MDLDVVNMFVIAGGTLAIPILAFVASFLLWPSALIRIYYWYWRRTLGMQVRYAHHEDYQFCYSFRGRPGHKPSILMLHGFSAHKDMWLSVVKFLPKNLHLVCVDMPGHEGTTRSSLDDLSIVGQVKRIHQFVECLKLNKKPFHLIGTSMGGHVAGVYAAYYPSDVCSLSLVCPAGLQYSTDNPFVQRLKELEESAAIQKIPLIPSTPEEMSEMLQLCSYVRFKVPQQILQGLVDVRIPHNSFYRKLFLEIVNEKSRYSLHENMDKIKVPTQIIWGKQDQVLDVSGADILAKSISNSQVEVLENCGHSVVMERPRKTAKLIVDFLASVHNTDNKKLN
The conditions noted are these: 1 μM, mouse brain (mem) proteome. The procedure: (§1) Assay Overview: The purpose of this assay was to determine whether test compounds can inhibit LYPLA1 and LYPLA2 in a complex proteomic lysate and to assess anti-target inhibition using a competitive activity-based proteomic profiling (ABPP) assay. In this assay, a complex proteome endogenously expressing LYPLA1/2 was incubated with test compound followed by reaction with a rhodamine-conjugated fluorophosphonate (FP-Rh) serine-hydrolase specific activity-based probe. The reaction products were separated by SDS-PAGE and visualized in-gel using a flatbed fluorescence scanner. The percentage activity remaining was determined by measuring the integrated optical density of the bands. […] Percent inhibition was calculated relative to a DMSO (no compound) control.
(§2) Protocol Summary: Mouse brain membrane proteome (50 μL reaction volume, 1 mg/mL in DPBS) was treated with 0.1-100 μM test compound (1 μL of a 50× stock in DMSO) for 30 minutes at 37° C. FP-Rh (1 μL of 50× stock in DMSO, Thermo #88318) was added to a final concentration of 2 μM. The reactions were incubated for 30 minutes at 25° C., quenched with 16 μL 4×SDS-PAGE loading buffer (reducing), separated by SDS-PAGE and visualized by in-gel fluorescent scanning. The percentage activity remaining was determined by measuring the integrated optical density of the bands relative to a DMSO-only (no compound) control. Assay Cutoff: Compounds with ≥50% inhibition of targets at 1 μM test compound concentration were considered active.
(§3) Assay Overview: The purpose of this assay was to determine IC50 values of powder samples of test compounds for enzyme of interest activity, and anti-targets in a complex proteomic lysate using a gel-based competitive ABPP assay. In this assay, a complex proteome was incubated with test compound followed by reaction with FP-Rh and SDS-PAGE analysis as described above.
(§4) Protocol Summary: Soluble HeLa cell proteome (50 μL reaction volume, 1 mg/mL in DPBS) or mouse brain membrane proteome (50 μL reaction volume, 1 mg/mL in DPBS) was treated with varying concentrations of test compound (1 μL of a 50× stock in DMSO) for 30 minutes at 37° C. FP-Rh (1 μL of 50× stock in DMSO) was added to a final concentration of 2 μM. The reaction was incubated for 30 minutes at 25° C., quenched with 16 μL 4×SDS-PAGE loading buffer (reducing), separated by SDS-PAGE and visualized by in-gel fluorescent scanning. The percentage activity remaining was determined by measuring the integrated optical density of the enzymes of interest, and anti-target bands relative to a DMSO-only (no compound) control. IC50 values were determined from dose-response curves from three replicates at each inhibitor concentration: 1, 10, 100, 1000, 10000 nM and 0.01, 0.1, 1, 10, 100, 1000, 10000, 50000, and 100000 nM.

Assay [2] addresses T2, FAAH (Mus musculus, UniProt O08914).
T2 construct: from tissue; host or cells: mouse brain, membrane fraction
T2 sequence (O08914 1-579): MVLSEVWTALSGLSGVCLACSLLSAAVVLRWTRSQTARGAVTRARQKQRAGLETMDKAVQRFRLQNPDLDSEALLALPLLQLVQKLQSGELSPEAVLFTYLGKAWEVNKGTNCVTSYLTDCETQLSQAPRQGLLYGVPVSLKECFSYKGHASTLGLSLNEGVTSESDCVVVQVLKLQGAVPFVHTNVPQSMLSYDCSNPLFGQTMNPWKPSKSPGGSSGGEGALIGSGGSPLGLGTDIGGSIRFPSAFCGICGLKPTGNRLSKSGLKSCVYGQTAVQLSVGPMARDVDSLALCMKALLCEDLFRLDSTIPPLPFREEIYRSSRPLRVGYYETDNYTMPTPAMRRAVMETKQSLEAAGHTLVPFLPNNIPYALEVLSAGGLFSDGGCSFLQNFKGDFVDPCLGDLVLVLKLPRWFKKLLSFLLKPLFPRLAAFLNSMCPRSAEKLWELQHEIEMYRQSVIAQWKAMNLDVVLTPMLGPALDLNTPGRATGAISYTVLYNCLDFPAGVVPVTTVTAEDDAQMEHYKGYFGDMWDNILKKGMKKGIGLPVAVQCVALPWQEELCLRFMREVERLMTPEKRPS
Conditions: 10 μM, mouse brain (mem) proteome. The procedure:
as §1, §2, §3, §4

For assay [3], the target named is T3, ABHD12 (Mus musculus, UniProt Q99LR1).
T3 construct: from tissue; host or cells: mouse brain, membrane fraction
T3 sequence (Q99LR1 1-398): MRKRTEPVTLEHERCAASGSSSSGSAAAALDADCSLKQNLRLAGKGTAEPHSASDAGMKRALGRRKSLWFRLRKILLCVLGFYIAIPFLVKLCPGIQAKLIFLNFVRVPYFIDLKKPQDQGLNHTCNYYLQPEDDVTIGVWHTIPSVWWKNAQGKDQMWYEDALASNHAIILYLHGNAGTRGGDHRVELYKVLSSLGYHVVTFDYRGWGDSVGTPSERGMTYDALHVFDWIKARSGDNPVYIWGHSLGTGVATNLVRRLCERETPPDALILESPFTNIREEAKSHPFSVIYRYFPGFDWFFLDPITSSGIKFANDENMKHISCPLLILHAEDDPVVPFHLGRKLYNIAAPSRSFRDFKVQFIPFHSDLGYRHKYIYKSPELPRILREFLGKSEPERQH
Conditions: mouse brain (mem) proteome. The procedure: as §1, §2

For `C#Cc1ccc(CCC2CCN(C(=O)ON3C(=O)[C@@H]4CN(C(=O)N5CCOCC5)CCN4C3=O)CC2)cc1` [Compound 48, (S)-7-(morpholine-4-carbonyl)-1,3-dioxo-hexahydroimidazo[1,5-a]pyrazin-2(3H)-yl 4-(4-ethynylphenethyl)piperidine-1-carboxylate], in assay [1], the “ABHD6 in vitro enzyme activity, % @ 1 μM” value is recorded as 100% @. Moreover, in assay [2], the “FAAH in vitro enzyme activity, % @ 10 μM” value was determined as 75% @. Further, in assay [3], the “ABHD12 in vitro enzyme activity, % @ 10 μM” value (shortened to “ABHD12 … % @ 10 μM”) was determined as 50% @.
`O=C(ON1C(=O)[C@@H]2CN(C(=O)N3CCOCC3)CCN2C1=O)N1CCN(CCc2ccc(Cl)cc2)CC1` [Compound 41, (S)-7-(morpholine-4-carbonyl)-1,3-dioxo-hexahydroimidazo[1,5-a]pyrazin-2(3H)-yl 4-(4-chlorophenethyl)piperazine-1-carboxylate]: the “ABHD6 in vitro enzyme activity, % @ 1 μM” value in assay [1] worked out at 100% @. Further, in assay [2], the “FAAH in vitro enzyme activity, % @ 10 μM” value is 100% @. Also, the “ABHD12 … % @ 10 μM” value in assay [3] came to 0% @.
For the molecule `C#Cc1ccc(CCC2CCN(C(=O)ON3C(=O)C4CN(C(=O)N5CCOCC5)CCN4C3=O)CC2)cc1` (stereo not drawn) [Compound 53, 7-(morpholine-4-carbonyl)-1,3-dioxo-hexahydroimidazo[1,5-a]pyrazin-2(3H)-yl 4-(4-ethynylphenethyl)piperidine-1-carboxylate], the “ABHD6 in vitro enzyme activity, % @ 1 μM” value in assay [1] stood at 100% @. In addition, the “FAAH in vitro enzyme activity, % @ 10 μM” value in assay [2] was determined as 50% @. Further, the “ABHD12 … % @ 10 μM” value in assay [3] came to 50% @.
Take `COc1ccc(N2CCN(C(=O)ON3C(=O)C4CN(CC5CCN(Cc6ccccc6)CC5)CCN4C3=O)CC2)cc1` (stereo not drawn) [Compound 52, 7-((1-benzylpiperidin-4-yl)methyl)-1,3-dioxo-hexahydroimidazo[1,5-a]pyrazin-2(3H)-yl 4-(4-methoxyphenyl)piperazine-1-carboxylate]: in assay [1], the “ABHD6 in vitro enzyme activity, % @ 1 μM” value is on record as 100% @. Moreover, the “FAAH in vitro enzyme activity, % @ 10 μM” value in assay [2] is given as 0% @. For the same molecule, the “ABHD12 … % @ 10 μM” value in assay [3] is 0% @.

The values above are taken from patent US9981972B2, “N-hydroxy bicyclic hydantoin carbamates as tools for identification of serine hydrolase targets” (ABIDE THERAPEUTICS, INC., priority 2014, dated 2018).
